Laboratory results as given in US9371307B2, “Serine protease inhibitors” (THE JOHNS HOPKINS UNIVERSITY, priority 2011, dated 2016).
Read-outs that look alike come from different tables or passages of the source.

Tests used:
Assay type in all cases: biochemical
Tryptase = Tryptase (Homo sapiens, UniProt Q15661); assay: Selectivity of chymase inhibitors against tryptase; conditions: ratio of Ki enzyme/Ki chymase
Protocol: (§1) As provided in Table 1, hereinabove in Example 2, selectivity was tested by measuring the inhibitory activity of ef-rs-03-075 and analogs against other serine proteases, including thrombin, trypsin, and tryrptase.

Thrombin = Thrombin (Homo sapiens, UniProt P00734); assay: Selectivity of chymase inhibitors against thrombin; conditions: ratio of Ki enzyme/Ki chymase
Protocol: as §1

human chymase = target: T1, human chymase (Homo sapiens, UniProt P23946); assay: Inhibition of chymase (Ki; Lineweaver-Burk double reciprocal plots)
T1 construct: In its active form within the secretory granules of mast cells, human chymase contains 226 amino acid residues
T1 sequence (P23946 22-247): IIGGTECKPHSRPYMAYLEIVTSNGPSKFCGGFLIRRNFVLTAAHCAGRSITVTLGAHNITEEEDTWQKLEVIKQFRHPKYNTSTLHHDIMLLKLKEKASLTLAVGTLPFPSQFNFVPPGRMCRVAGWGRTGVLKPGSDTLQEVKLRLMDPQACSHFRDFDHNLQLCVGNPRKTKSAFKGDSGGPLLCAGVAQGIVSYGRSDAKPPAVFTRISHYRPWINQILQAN

DPPIV = DPPIV (Homo sapiens, UniProt P27487); assay: Selectivity of chymase inhibitors against DPPIV; conditions: ratio of Ki enzyme/Ki chymase
Trypsin = assay: Selectivity of chymase inhibitors against trypsin; conditions: ratio of Ki enzyme/Ki chymase
Protocol: as §1

Sequence of DPPIV (P27487 whole entry, species assumed): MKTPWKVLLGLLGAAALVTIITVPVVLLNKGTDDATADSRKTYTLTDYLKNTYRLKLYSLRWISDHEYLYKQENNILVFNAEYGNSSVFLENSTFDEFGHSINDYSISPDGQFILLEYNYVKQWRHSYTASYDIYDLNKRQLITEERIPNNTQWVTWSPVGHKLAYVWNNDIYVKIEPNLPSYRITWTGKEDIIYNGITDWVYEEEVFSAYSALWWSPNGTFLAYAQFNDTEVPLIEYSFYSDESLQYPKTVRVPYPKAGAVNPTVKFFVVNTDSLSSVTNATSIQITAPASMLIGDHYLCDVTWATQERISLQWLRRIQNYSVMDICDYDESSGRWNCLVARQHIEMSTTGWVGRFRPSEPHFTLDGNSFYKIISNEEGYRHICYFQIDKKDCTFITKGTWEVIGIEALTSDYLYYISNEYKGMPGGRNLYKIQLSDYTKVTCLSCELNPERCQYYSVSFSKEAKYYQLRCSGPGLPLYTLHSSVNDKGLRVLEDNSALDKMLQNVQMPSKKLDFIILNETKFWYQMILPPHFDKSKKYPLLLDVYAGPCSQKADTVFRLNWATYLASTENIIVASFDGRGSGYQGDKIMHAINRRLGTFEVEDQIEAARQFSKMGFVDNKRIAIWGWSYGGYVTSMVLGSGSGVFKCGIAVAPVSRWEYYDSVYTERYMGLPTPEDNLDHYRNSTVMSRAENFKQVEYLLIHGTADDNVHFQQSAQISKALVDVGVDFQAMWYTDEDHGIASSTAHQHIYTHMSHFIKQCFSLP
Sequence of Tryptase (Q15661 31-275): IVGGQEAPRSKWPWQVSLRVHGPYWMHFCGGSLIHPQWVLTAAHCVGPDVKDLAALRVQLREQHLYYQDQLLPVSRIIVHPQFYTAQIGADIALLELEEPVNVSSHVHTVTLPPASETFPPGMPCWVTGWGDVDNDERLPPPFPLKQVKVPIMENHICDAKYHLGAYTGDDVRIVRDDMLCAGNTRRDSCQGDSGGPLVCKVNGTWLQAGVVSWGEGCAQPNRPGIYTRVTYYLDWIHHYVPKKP

Row | Compound | Selectivity of chymase inhibitors: Tryptase (Tryptase) | Selectivity of chymase inhibitors: Thrombin (Thrombin) | Ki (human chymase; read-out: Chymase Ki) [nM] | Selectivity of chymase inhibitors: DPPIV (DPPIV) | Selectivity of chymase inhibitors: Trypsin (Trypsin) | inhibitory mechanism (human chymase; double reciprocal plot of substrate concentration vs. reaction velocity, various inhibitor concentrations (FIG. 4)) | Ki (human chymase; value given in the description text as 'high affinity', read-out: affinity) [nM]
1 | O=S(=O)(/C=C/c1cccc(Cl)c1)N(Cc1ccccc1)c1cccc(Cl)c1 [ef-rs-03-019-P4] | >275 | >200 | 1320 ± 280 | >100 |  |  | 
2 | O=S(=O)(/C=C/c1cccc(Cl)c1)N(Cc1cccc(Br)c1)c1cccc(Cl)c1 [ef-rs-08-050] | >320 | 45 | 1220 ± 190 | 40 |  |  | 
3 | O=S(=O)(/C=C/c1cccc(Cl)c1)N(Cc1cccc(Cl)c1)c1cccc(Cl)c1 [ef-rs-03-075, (E)-N-(3-chlorobenzyl)-N,2-bis(3-chlorophenyl)ethenesulfonamide] | >410 | >320 | 959 ± 42 | 37 | >110 | competitive inhibition | 544
4 | O=S(=O)(/C=C/c1cccc(Br)c1)N(Cc1ccccc1)c1cccc(Cl)c1 [ef-rs-03-015-P2] | >260 | >200 | 1580 ± 130 | >100 |  |  | 
5 | Cc1cccc(CN(c2cccc(Cl)c2)S(=O)(=O)/C=C/c2cccc(Cl)c2)c1 [ef-rs-08-049] | >350 | 13 | 1110 ± 220 | 170 |  |  | 
6 | O=S(=O)(/C=C/c1cccc(Br)c1)N(Cc1ccsc1)c1cccc(Cl)c1 [ef-rs-03-039-P1] | >310 | >60 | 1340 ± 390 | 17 |  |  | 
7 | O=S(=O)(/C=C/c1cccc(Cl)c1)N(Cc1ccsc1)c1cccc(Cl)c1 [ef-rs-03-038-P1] | >240 | >60 | 1570 ± 390 | 34 |  |  | 
8 | O=S(=O)(/C=C/c1cccc(Cl)c1)N(Cc1cccc(Cl)c1)c1cccc(OCc2cccc(Cl)c2)c1 [ef-rs-08-052] | >100 | >75 | 978 ± 87 | 10 |  |  | 
9 | O=S(=O)(/C=C/c1cccc(Cl)c1)N(Cc1cccc(F)c1)c1cccc(Cl)c1 [ef-rs-08-057] | >80 | >50 | 1190 ± 120 | 70 |  |  | 
10 | O=S(=O)(/C=C/c1cccc(Cl)c1)N(Cc1ccc(Cl)c(Cl)c1)c1cccc(Cl)c1 [ef-rs-08-051] | >110 | 70 | 903 ± 150 | 16 |  |  | 
11 | O=S(=O)(/C=C/c1cccc(Cl)c1)N(Cc1ccc(Cl)cc1)c1cccc(Cl)c1 [ef-rs-08-056] | >310 | 20 | 1260 ± 200 | 80 |  |  | 
